Earlier results on 1 compound are cited in patent US20240189475A1 (PUKYONG NATIONAL UNIVERSITY INDUSTRY-UNIVERSITY COOPERATION …, priority 2022, published 2024).

For this series the following is noted: background statement.

As for `CC(=O)c1c(O)c(C)c(O)c2c1OC1=CC(=O)C(C(C)=O)C(=O)C12C` (stereo not shown) [UA, usnic acid], the solubility in water result is on record as “low solubility in water”.
